Values of other authors as cited in patent publication US10647856B2, “Mold resistant formable cork” (THE BOEING COMPANY, priority 2016, dated 2020).
Values after ≈ are worked out from the molar mass of the structure shown.

For O=[N+]([O-])c1ccc(O)cc1 [para-nitrophenol], the water solubility is given as 16 mg/mL (≈ 115 mM).
